Assay results taken from patent US8313736B2, “Chemically stable ingredients as lemon odorant” (Firmenich SA, priority 2008, dated 2012).

How the values were obtained:
[1] = tested on: Mammalian Erythrocyte Micronucleus; experiment: In vivo test for clastogenic effects, Mammalian Erythrocyte Micronucleus Test (OECD 474)
Excerpt: In vivo test for clastogenic effects performed on 3,6,7-trimethyl-2,6-octadienenitrile and 3,7-dimethyl-2,6-octadienenitrile under the conditions required by the standard test protocol for Mammalian Erythrocyte Micronucleus Test (OECD 474, OECD web site http://lysander.sourceoecd.org/v1=155221/c1=19/nw=1/rpsv/ij/oecdjournals/1607310x/v1n 4/s39/p1) gave the following results: • 3,6,7-trimethyl-2,6-octadienenitrile: the test was negative (i.e. no perceived toxicity) in the dose range between 200-1200 mg/kg. • 3,7-dimethyl-2,6-octadienenitrile: the test was positive (i.e. perceived toxicity) in the dose range between 500-1250 mg/kg (overlapping the dose range of the invention compound herein above). This ingredient has been banned for its clastogenic effect.

[2] = reason for ban; cited from earlier work

CC(=CC#N)CCC(C)=C(C)C [3,6,7-trimethyl-2,6-octadienenitrile]
Clastogenicity (induction of chromosome-damages) ([1]; E and Z isomers or a mixture thereof): not clastogenic | Mammalian Erythrocyte Micronucleus Test result (clastogenic effects) ([1]; dose range between 200-1200 mg/kg): negative

CC(C)=CCCC(C)=CC#N [3,7-dimethyl-2,6-octadienenitrile]
Mammalian Erythrocyte Micronucleus Test result (clastogenic effects) ([1]; dose range between 500-1250 mg/kg): positive | Mutagenicity [2]: mutagenic
